Each structure is given as a SMILES string.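 A five-concentration, 48-hour dose response in 96-well plates underlies each endpoint, interpolated linearly between surrounding concentrations. GI50: concentration for 50% inhibition of growth.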 Activity calls are given as the source filed them. No stated cut-off is given here; in the data, active = GI50 up to about 1.1 µM and inactive = higher. Some results are limits rather than exact numbers.

Consider 11 compounds from ChEMBL document CHEMBL1201862, “PubChem BioAssay data set” (2004).

Some test systems named below: NCI-H23; UACC-62; SNB-19; SK-MEL-2; UACC-257; RXF 393; SK-MEL-28; TK-10; SW-620; SF-268; SNB-75; SR; HL-60; OVCAR-4; HCT-15; RPMI-8226; SF-295; HT-29; HOP-62; NCI-H522.
What all share (experiment): NCI anticancer screen, dose series, 48 h

As for `Cc1c(C)c(C)c(-n2c(=O)n(C)c(=O)n2C(C)(C)C)c(C)c1C`, the GI50 in the assay with NCI-H23, in the assay with UACC-62, with SNB-19, in the assay on SK-MEL-2, in the assay with UACC-257 and in the assay on RXF 393 was > 100 µM (inactive) throughout. Moreover, the GI50 is > 100 µM (inactive) in the assay with SK-MEL-28; > 100 µM (inactive) with TK-10; > 100 µM (inactive) in the assay on SW-620; > 100 µM (inactive) in the assay on SF-268; > 100 µM (inactive) with SNB-75; 85.9 µM (inactive) in the assay on SR. In addition, the GI50 was 40.3 µM (inactive) in the assay on HL-60; > 100 µM (inactive) in the assay with OVCAR-4; > 100 µM in the assay with HCT-15; 89.5 µM (inactive) with RPMI-8226; > 100 µM (inactive) with SF-295.
For `N#Cc1nc(-c2ccsc2)oc1N`, the GI50 in the assay with UACC-62, in the assay on SNB-19, with SK-MEL-2, with UACC-257, in the assay with RXF 393 and with SK-MEL-28 was > 100 µM (inactive) in each case. For the same compound, the GI50 was > 100 µM (inactive) with TK-10; > 100 µM (inactive) with SW-620; > 100 µM (inactive) in the assay on SF-268; 57 µM (inactive) with SNB-75; > 100 µM (inactive) in the assay with SR; > 100 µM (inactive) in the assay on HL-60. For the same compound, the GI50 in the assay with HT-29 was > 100 µM (inactive); with HCT-15, > 100 µM; with RPMI-8226, 77.4 µM (inactive); in the assay on HOP-62, > 100 µM (inactive).
Take `CCOc1snc(C(Cl)(Cl)Cl)c1Cl`: the GI50 was 12 µM (inactive) in the assay on NCI-H23; 19.4 µM (inactive) in the assay with UACC-62; 6.75 µM (inactive) in the assay with SNB-19; 14.3 µM (inactive) in the assay with UACC-257; 13.6 µM (inactive) in the assay with RXF 393; 25.5 µM (inactive) with SK-MEL-28. The GI50 with TK-10 was 23.1 µM (inactive); in the assay with SW-620 it was 30.3 µM (inactive); with SF-268 it was 17.7 µM (inactive); with SNB-75 it was 17.7 µM (inactive); in the assay with SR, 14 µM (inactive); with HL-60, 13.2 µM (inactive). The GI50 with HT-29 was 15.5 µM (inactive); in the assay with OVCAR-4, 27.1 µM (inactive); in the assay with HCT-15 it was 24.2 µM; in the assay with RPMI-8226 it was 15.5 µM (inactive); in the assay on HOP-62, 27.4 µM (inactive); in the assay on SF-295, 21.9 µM (inactive).
Regarding `O=C1CSc2ccncc2N1`, the GI50 in the assay on NCI-H23 was > 100 µM (inactive); in the assay on UACC-62 it was > 100 µM (inactive); with SNB-19, 8.93 µM (inactive); in the assay on SK-MEL-2, > 100 µM (inactive); with UACC-257, > 100 µM (inactive); with RXF 393, > 100 µM (inactive). In addition, the GI50 in the assay with SK-MEL-28, with TK-10, in the assay on SW-620, with SF-268, with SNB-75 and with SR was > 100 µM (inactive) each time. Also, the GI50 was > 100 µM (inactive) with HL-60; > 100 µM (inactive) in the assay with HT-29; > 100 µM (inactive) with OVCAR-4; > 100 µM with HCT-15; > 100 µM (inactive) in the assay on HOP-62; > 100 µM (inactive) in the assay with SF-295.
For `OCC(CO)C1c2cccc3ccc4cccc1c4c23`, the GI50 in the assay with NCI-H23, with UACC-62, with SNB-19, in the assay with SK-MEL-2, with UACC-257 and with RXF 393 was > 100 µM (inactive) throughout. The GI50 in the assay on SK-MEL-28 was > 100 µM (inactive); with TK-10, > 100 µM (inactive); with SW-620, > 100 µM (inactive); with SF-268, > 100 µM (inactive); with SNB-75 it was 54.1 µM (inactive); with SR, > 100 µM (inactive). In addition, the GI50 in the assay on HL-60, in the assay with HT-29, in the assay with OVCAR-4, with RPMI-8226, in the assay on HOP-62 and in the assay on SF-295 was > 100 µM (inactive) throughout.
As for `N#CC(C#N)=C1SC(=N\c2ccccc2)/C(=N/c2ccccc2)N1c1ccccc1`, the GI50 in the assay with NCI-H23 is 29.6 µM (inactive); in the assay with UACC-62, 5.79 µM (inactive); with SNB-19, 40.2 µM (inactive); in the assay with SK-MEL-2, 5.19 µM (inactive); in the assay with UACC-257, 15.7 µM (inactive); in the assay on RXF 393 it was 11 µM (inactive). Moreover, the GI50 in the assay with SK-MEL-28 was 22 µM (inactive); with TK-10, 44.1 µM (inactive); with SW-620 it was 3.28 µM (inactive); with SF-268 it was 19.3 µM (inactive); with NCI-H522, 1.94 µM (inactive); in the assay on SNB-75, 30 µM (inactive). Moreover, the GI50 was 3.03 µM (inactive) in the assay on SR; 24.2 µM (inactive) with HT-29; 13.2 µM (inactive) in the assay on OVCAR-4; 2.03 µM in the assay with HCT-15; 5.75 µM (inactive) in the assay on RPMI-8226; 27.7 µM (inactive) in the assay with HOP-62. For the same compound, the GI50 in the assay on SF-295 was 25.2 µM (inactive).
For `Cc1cc2c(c(C(=O)NCC(=O)O)c1)Oc1c(cc(C)cc1C(=O)NCC(=O)O)S2`, the GI50 in the assay with NCI-H23, in the assay with UACC-62, with SNB-19, in the assay with SK-MEL-2, with UACC-257 and in the assay with RXF 393 was > 100 µM (inactive) throughout. Further, the GI50 in the assay with SK-MEL-28, with TK-10, in the assay on SW-620, with SF-268, in the assay on NCI-H522 and in the assay with SNB-75 was > 100 µM (inactive) in each case. In addition, the GI50 in the assay on SR is > 100 µM (inactive); in the assay on HT-29, > 100 µM (inactive); in the assay on OVCAR-4, > 100 µM (inactive); with HCT-15, > 100 µM; with RPMI-8226, > 100 µM (inactive); with HOP-62, > 100 µM (inactive). For the same compound, the GI50 with SF-295 is > 100 µM (inactive).
In the case of `CC/C(=N\NS(=O)(=O)c1ccccc1)c1ccccc1`, the GI50 in the assay with NCI-H23, in the assay on UACC-62, with SK-MEL-2, in the assay with UACC-257, in the assay with RXF 393 and in the assay with SK-MEL-28 was > 100 µM (inactive) throughout. The GI50 in the assay on TK-10, in the assay with SW-620, in the assay on SF-268, in the assay with SNB-75, in the assay on SR and in the assay on HL-60 was > 100 µM (inactive) in each case. Also, the GI50 was > 100 µM (inactive) in the assay on HT-29; > 100 µM (inactive) with OVCAR-4; > 100 µM with HCT-15; > 100 µM (inactive) in the assay on RPMI-8226; > 100 µM (inactive) with HOP-62; > 100 µM (inactive) in the assay with SF-295.
For `C=C(C)CCN(C(=O)OC(C)(C)C)c1cc(C(C)C)co1`, the GI50 in the assay with NCI-H23 was 54 µM (inactive); in the assay with UACC-62, 86.9 µM (inactive); with SNB-19 it was > 100 µM (inactive); in the assay on SK-MEL-2 it was 28.5 µM (inactive); with UACC-257, 34 µM (inactive); in the assay on SK-MEL-28, > 100 µM (inactive). Moreover, the GI50 in the assay on TK-10 is > 100 µM (inactive); in the assay on SW-620 it was 56 µM (inactive); with SF-268 it was 0.344 µM (active); in the assay with SR it was 33.5 µM (inactive); in the assay on HL-60, 11.8 µM (inactive); in the assay on HT-29, 45.3 µM (inactive). Moreover, the GI50 is 59.2 µM (inactive) with OVCAR-4; > 100 µM with HCT-15; 20.2 µM (inactive) with RPMI-8226; > 100 µM (inactive) in the assay on HOP-62; 51.4 µM (inactive) in the assay on SF-295.
Take `COc1cc2[nH]c3c(c2cc1OC)CCN[C@]31CC[C@]2(CC3c4c(cc(OC)c(O)c42)CCN3C)C[C@H]1OC` (stereo not given in full): the GI50 with NCI-H23 is 65.5 µM (inactive); with UACC-62 it was 25 µM (inactive); in the assay on SNB-19 it was 34.8 µM (inactive); in the assay with UACC-257, 19.9 µM (inactive); in the assay with RXF 393 it was 3.04 µM (inactive); in the assay on SK-MEL-28 it was 20.2 µM (inactive). Also, the GI50 is 21.6 µM (inactive) in the assay with TK-10; 22.3 µM (inactive) in the assay on SW-620; 25.5 µM (inactive) with SF-268; 21.5 µM (inactive) in the assay on SNB-75; 15.8 µM (inactive) in the assay on SR; 11.6 µM (inactive) in the assay on HL-60. The GI50 in the assay with HT-29 was 22.3 µM (inactive); in the assay with OVCAR-4, 23.8 µM (inactive); with HCT-15, 18.8 µM; in the assay on RPMI-8226, 15.2 µM (inactive); in the assay on HOP-62 it was 21.8 µM (inactive); in the assay on SF-295, 20.5 µM (inactive).
`O=C1Cc2c([nH]c3ccc(C(=O)O)cc23)-c2ccccc2N1`: the GI50 with NCI-H23, in the assay on UACC-62, with SNB-19, with SK-MEL-2, in the assay on UACC-257 and in the assay on SK-MEL-28 was > 100 µM (inactive) in each case. The GI50 with TK-10 was > 100 µM (inactive); with SW-620, > 100 µM (inactive); with SF-268, > 100 µM (inactive); with SR it was > 100 µM (inactive); with HL-60, 37.5 µM (inactive); with HT-29, 84.9 µM (inactive). Further, the GI50 is > 100 µM (inactive) in the assay on OVCAR-4; > 100 µM in the assay with HCT-15; > 100 µM (inactive) in the assay on RPMI-8226; > 100 µM (inactive) in the assay on HOP-62; > 100 µM (inactive) in the assay on SF-295.
